In patent US12162890B2 (Novartis AG, priority 2015, dated 2024):

These compounds were tested against HEK293 cells with stable expression of the GRIN1 gene and tetracycline-inducible expression of the GRIN2B gene (NMDA receptor, NR2B) (Homo sapiens, UniProt Q13224) (assay: Fluo-8 Ca2+ flux assay: reversal of Ro 25-6981-mediated suppression of the Ca2+ response to co-agonist (glutamate/glycine)). Conditions: reversal of the Ro 25-6981 suppression of the Ca2+ response to co-agonist (glutamate/glycine).
Assay type: cell-based
Further: test concentration or dose not given here.

Chain of HEK293 cells with stable expression of the GRIN1 gene and tetracycline-inducible expression of the GRIN2B gene (NMDA receptor, NR2B) (Q13224 27-1484, other chains not shown): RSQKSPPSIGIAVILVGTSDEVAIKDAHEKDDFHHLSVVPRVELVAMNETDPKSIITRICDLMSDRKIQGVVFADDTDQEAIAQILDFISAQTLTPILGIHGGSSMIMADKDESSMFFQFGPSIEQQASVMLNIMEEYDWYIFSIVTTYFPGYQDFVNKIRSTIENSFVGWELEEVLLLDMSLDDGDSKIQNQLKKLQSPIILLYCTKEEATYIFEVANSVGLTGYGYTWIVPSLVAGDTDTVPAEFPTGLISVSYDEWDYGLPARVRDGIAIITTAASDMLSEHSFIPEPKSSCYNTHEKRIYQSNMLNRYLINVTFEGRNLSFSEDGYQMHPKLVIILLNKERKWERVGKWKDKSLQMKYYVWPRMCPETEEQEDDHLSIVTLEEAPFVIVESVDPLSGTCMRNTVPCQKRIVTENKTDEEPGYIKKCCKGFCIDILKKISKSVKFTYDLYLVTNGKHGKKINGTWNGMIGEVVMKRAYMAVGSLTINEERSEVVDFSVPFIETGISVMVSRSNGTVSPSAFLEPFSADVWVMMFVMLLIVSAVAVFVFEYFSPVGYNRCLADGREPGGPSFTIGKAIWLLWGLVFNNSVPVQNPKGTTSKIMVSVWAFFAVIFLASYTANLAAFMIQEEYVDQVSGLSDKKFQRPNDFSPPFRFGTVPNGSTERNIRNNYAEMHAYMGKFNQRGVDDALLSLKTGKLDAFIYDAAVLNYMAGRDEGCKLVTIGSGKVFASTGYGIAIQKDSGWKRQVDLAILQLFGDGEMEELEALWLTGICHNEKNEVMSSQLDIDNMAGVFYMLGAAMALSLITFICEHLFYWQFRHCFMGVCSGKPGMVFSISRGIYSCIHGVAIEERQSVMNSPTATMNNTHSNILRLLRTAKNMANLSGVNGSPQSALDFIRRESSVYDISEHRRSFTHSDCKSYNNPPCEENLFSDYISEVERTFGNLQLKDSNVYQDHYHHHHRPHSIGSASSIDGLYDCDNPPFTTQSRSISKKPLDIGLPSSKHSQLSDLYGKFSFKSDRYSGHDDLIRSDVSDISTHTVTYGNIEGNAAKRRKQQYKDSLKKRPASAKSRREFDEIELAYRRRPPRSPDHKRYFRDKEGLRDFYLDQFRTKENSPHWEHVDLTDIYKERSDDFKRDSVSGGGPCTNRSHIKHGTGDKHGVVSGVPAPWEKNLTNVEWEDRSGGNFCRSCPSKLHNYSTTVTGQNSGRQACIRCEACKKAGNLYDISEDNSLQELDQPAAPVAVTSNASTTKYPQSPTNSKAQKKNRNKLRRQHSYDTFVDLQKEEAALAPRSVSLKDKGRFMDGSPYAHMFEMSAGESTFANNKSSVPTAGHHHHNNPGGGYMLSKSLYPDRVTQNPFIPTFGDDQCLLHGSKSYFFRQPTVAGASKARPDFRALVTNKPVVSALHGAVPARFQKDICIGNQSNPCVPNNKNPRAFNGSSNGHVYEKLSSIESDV

Point of comparison: O=C(Cn1ccc2scc(-c3ccc(F)c(C(F)(F)F)c3)c2c1=O)N1CC(F)(c2ccccc2)C1 [Example 54, 3-(4-fluoro-3-(trifluoromethyl)phen-yl)-5-(2-(3-fluoro-3-phenylazetidin-1-yl)-2-oxoethyl)thieno[3,2-c]pyridin-4(5H)-one], “Response Recovered (%)” value 17%. Against it:
- O=C(Cn1ccc2scc(-c3ccc(F)c(C(F)(F)F)c3)c2c1=O)N1CC(F)(C2CC2)C1 [Example 45, 5-(2-(3-cyclopropyl-3-fluoroazetidin-1-yl)-2-oxoethyl)-3-(4-fluoro-3-(trifluoromethyl)phen-yl)thieno[3,2-c]pyridin-4(5H)-one] — lower, 12%
- O=C(Cn1ccc2scc(-c3ccc(F)c(Cl)c3)c2c1=O)N1CCC1 [Example 46, 5-(2-(azetidin-1-yl)-2-oxoethyl)-3-(3-chloro-4-fluorophenyl)thieno[3,2-c]pyridin-4(5H)-one] — higher, 26%
- O=C(Cn1ccc2scc(-c3ccc(F)c(Cl)c3)c2c1=O)N1CC(F)C1 [Example 47, 3-(3-chloro-4-fluorophenyl)-5-(2-(3-fluoroazetidin-1-yl)-2-oxoethyl)thieno[3,2-c]pyridin-4(5H)-one] — higher, 23%
- CC1CN(C(=O)Cn2ccc3scc(-c4ccc(F)c(Cl)c4)c3c2=O)C1 [Example 48, 3-(3-chloro-4-fluorophenyl)-5-(2-(3-methylazetidin-1-yl)-2-oxoethyl)thieno[3,2-c]pyridin-4(5H)-one] — higher, 67%
- O=C(Cn1ccc2scc(-c3ccc(Cl)c(Cl)c3)c2c1=O)N1CC(F)(C2CC2)C1 [Example 49, 5-(2-(3-cyclopropyl-3-fluoroazetidin-1-yl)-2-oxoethyl)-3-(3,4-dichlorophenyl)thien-o[3,2-c]pyridin-4(5H)-one] — higher, 26%
- CCC1(F)CN(C(=O)Cn2ccc3scc(-c4ccc(Cl)c(Cl)c4)c3c2=O)C1 [Example 50, 3-(3,4-dichlorophenyl)-5-(2-(3-ethyl-3-fluoroazetidin-1-yl)-2-oxoethyl)thieno[3,2-c]pyridin-4(5H)-one] — higher, 96%
- CCC1(F)CN(C(=O)Cn2ccc3scc(-c4ccc(F)c(C(F)(F)F)c4)c3c2=O)C1 [Example 51, 5-(2-(3-ethyl-3-fluoroazetidin-1-yl)-2-oxoethyl)-3-(4-fluoro-3-(trifluoromethyl)phen-yl)thieno[3,2-c]pyridin-4(5H)-one] — higher, 57%
- CCC1(F)CN(C(=O)Cn2ccc3scc(-c4ccc(F)c(Cl)c4)c3c2=O)C1 [Example 52, 3-(3-chloro-4-fluorophenyl)-5-(2-(3-ethyl-3-fluoroazetidin-1-yl)-2-oxoethyl)thieno[3,2-c]pyridin-4(5H)-one] — higher, 130%
- O=C(Cn1ccc2scc(-c3ccc(Cl)c(Cl)c3)c2c1=O)N1CC(F)(c2ccccc2)C1 [Example 53, 3-(3,4-dichlorophenyl)-5-(2-(3-fluoro-3-phenylazetidin-1-yl)-2-oxoethyl)thieno[3,2-c]pyridin-4(5H)-one] — higher, 24%
- CC1(O)CN(C(=O)Cn2ccc3scc(-c4ccc(F)c(C(F)(F)F)c4)c3c2=O)C1 [Example 55, 3-(4-fluoro-3-(trifluoromethyl)phen-yl)-5-(2-(3-hydroxy-3-methylazetidin-1-yl)-2-oxoethyl)thieno[3,2-c]pyridin-4(5H)-one] — lower, 14%
- O=C(Cn1ccc2scc(-c3ccc(F)c(Cl)c3)c2c1=O)NCC(F)(F)F [Example 56, 2-(3-(3-chloro-4-fluorophenyl)-4-oxothieno[3,2-c]pyridin-5(4H)-yl)-N-(2,2,2-trifluoroethyl)aceta-mide] — lower, 7.3%
- O=C(Cn1ccc2scc(-c3ccc(F)c(Cl)c3)c2c1=O)N1CC(F)(c2ccccc2)C1 [Example 57, 3-(3-chloro-4-fluorophenyl)-5-(2-(3-fluoro-3-phenylazetidin-1-yl)-2-oxoethyl)thieno[3,2-c]pyridin-4(5H)-one] — lower, 15%
